Assay results: PubChem BioAssay (NCI)
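Protocol summary: plate cells (96-well), add compound at 5 concentrations, incubate 48 h, interpolate endpoints linearly. TGI is the concentration that stops growth completely.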

Experiments:
Test in all cases: growth of human tumour cells (NCI), 48 h
T-47D breast = system: T-47D breast
NCI-H522 lung = system: NCI-H522 lung
RXF 393 renal = system: RXF 393 renal
COLO 205 colon = system: COLO 205 colon
NCI-H23 lung = system: NCI-H23 lung
RPMI-8226 leukemia = system: RPMI-8226 leukemia
MDA-MB-435 = system: MDA-MB-435
M14 melanoma = system: M14 melanoma
SF-268 CNS = system: SF-268 CNS
HL-60(TB) leukemia = system: HL-60(TB) leukemia
MALME-3M melanoma = system: MALME-3M melanoma
MCF7 breast = system: MCF7 breast
SNB-75 CNS = system: SNB-75 CNS
SK-MEL-2 melanoma = system: SK-MEL-2 melanoma
SF-539 CNS = system: SF-539 CNS
HOP-92 NSCLC = system: HOP-92 NSCLC
CCRF-CEM leukemia = system: CCRF-CEM leukemia
UACC-62 melanoma = system: UACC-62 melanoma
A549 NSCLC = system: A549 NSCLC
SK-MEL-28 melanoma = system: SK-MEL-28 melanoma
TK-10 renal = system: TK-10 renal
SN12C renal = system: SN12C renal
SW-620 colon = system: SW-620 colon
ACHN renal = system: ACHN renal
SNB-19 CNS = system: SNB-19 CNS
HCC-2998 colon = system: HCC-2998 colon
OVCAR-4 ovarian = system: OVCAR-4 ovarian
BT-549 breast = system: BT-549 breast
NCI-H226 lung = system: NCI-H226 lung
KM12 colon = system: KM12 colon
K-562 leukemia = system: K-562 leukemia
OVCAR-5 ovarian = system: OVCAR-5 ovarian
SR leukemia = system: SR leukemia
HCT-15 colon = system: HCT-15 colon
DU-145 prostate = system: DU-145 prostate
NCI/ADR-RES ovarian = system: NCI/ADR-RES ovarian
PC-3 prostate = system: PC-3 prostate
EKVX NSCLC = system: EKVX NSCLC
SF-295 CNS = system: SF-295 CNS
IGROV1 ovarian = system: IGROV1 ovarian
HCT-116 colon = system: HCT-116 colon
CAKI-1 renal = system: CAKI-1 renal
MOLT-4 leukemia = system: MOLT-4 leukemia
U251 CNS = system: U251 CNS
HOP-62 NSCLC = system: HOP-62 NSCLC
UACC-257 melanoma = system: UACC-257 melanoma
HT29 colon = system: HT29 colon
A498 renal = system: A498 renal
UO-31 renal = system: UO-31 renal
SK-MEL-5 melanoma = system: SK-MEL-5 melanoma
HS 578T breast = system: HS 578T breast
OVCAR-3 ovarian = system: OVCAR-3 ovarian
SK-OV-3 ovarian = system: SK-OV-3 ovarian
MDA-MB-231 breast = system: MDA-MB-231 breast
786-0 renal = system: 786-0 renal
OVCAR-8 ovarian = system: OVCAR-8 ovarian
NCI-H460 lung = system: NCI-H460 lung
LOX IMVI melanoma = system: LOX IMVI melanoma
MDA-N = system: MDA-N

`CC(C)c1ccc(/C=C2/C=C(c3ccc4ccccc4c3)OC2=O)cc1` was tested, and the TGI (T-47D breast) was > 100 µM, the TGI (NCI-H522 lung) was 23.5 µM and the TGI (RXF 393 renal) was > 100 µM. For the same compound, the TGI (COLO 205 colon) was 76.1 µM, the TGI (NCI-H23 lung) was > 100 µM and the TGI (RPMI-8226 leukemia) was 93.7 µM. The TGI (MDA-MB-435) was > 100 µM, the TGI (M14 melanoma) was > 100 µM and the TGI (SF-268 CNS) was > 100 µM. The TGI (HL-60(TB) leukemia) was 39.8 µM, the TGI (MALME-3M melanoma) was 33.4 µM and the TGI (MCF7 breast) was > 100 µM. For the same compound, the TGI (SNB-75 CNS) was > 100 µM, the TGI (SK-MEL-2 melanoma) was 39.6 µM and the TGI (SF-539 CNS) was > 100 µM. The TGI (HOP-92 NSCLC) was > 100 µM, the TGI (CCRF-CEM leukemia) was 20 µM and the TGI (UACC-62 melanoma) was > 100 µM. The TGI (A549 NSCLC) was > 100 µM, the TGI (SK-MEL-28 melanoma) was > 100 µM and the TGI (TK-10 renal) was > 100 µM. The TGI (SN12C renal) was > 100 µM, the TGI (SW-620 colon) was > 100 µM and the TGI (ACHN renal) was > 100 µM. The TGI (SNB-19 CNS) was > 100 µM, the TGI (HCC-2998 colon) was > 100 µM and the TGI (OVCAR-4 ovarian) was > 100 µM. For the same compound, the TGI (BT-549 breast) was > 100 µM, the TGI (NCI-H226 lung) was > 100 µM and the TGI (KM12 colon) was > 100 µM. The TGI (K-562 leukemia) was > 85.3 µM, the TGI (OVCAR-5 ovarian) was > 100 µM and the TGI (SR leukemia) was > 52.4 µM. The TGI (HCT-15 colon) was > 100 µM, the TGI (DU-145 prostate) was > 100 µM and the TGI (NCI/ADR-RES ovarian) was > 100 µM. The TGI (PC-3 prostate) was > 100 µM, the TGI (EKVX NSCLC) was > 92.5 µM and the TGI (SF-295 CNS) was > 100 µM. For the same compound, the TGI (IGROV1 ovarian) was > 100 µM, the TGI (HCT-116 colon) was > 100 µM and the TGI (CAKI-1 renal) was > 100 µM. The TGI (MOLT-4 leukemia) was 56.8 µM, the TGI (U251 CNS) was > 100 µM and the TGI (HOP-62 NSCLC) was > 100 µM. For the same compound, the TGI (UACC-257 melanoma) was 59.2 µM, the TGI (HT29 colon) was > 100 µM and the TGI (A498 renal) was > 100 µM. For the same compound, the TGI (UO-31 renal) was > 100 µM, the TGI (SK-MEL-5 melanoma) was 29 µM and the TGI (HS 578T breast) was > 100 µM. The TGI (OVCAR-3 ovarian) was > 100 µM, the TGI (SK-OV-3 ovarian) was > 100 µM and the TGI (MDA-MB-231 breast) was > 100 µM. For the same compound, the TGI (786-0 renal) was > 100 µM, the TGI (OVCAR-8 ovarian) was > 100 µM and the TGI (NCI-H460 lung) was > 100 µM. The TGI (LOX IMVI melanoma) was > 100 µM.

`Cc1cn(C2CC(N(O)C(N)=O)C(CO)O2)c(=O)[nH]c1=O` (centres undefined) was tested, and the TGI (T-47D breast) was > 100 µM, the TGI (NCI-H522 lung) was > 100 µM and the TGI (RXF 393 renal) was > 100 µM. For the same compound, the TGI (COLO 205 colon) was > 100 µM, the TGI (NCI-H23 lung) was > 100 µM and the TGI (RPMI-8226 leukemia) was > 100 µM. For the same compound, the TGI (MDA-MB-435) was > 100 µM, the TGI (M14 melanoma) was > 100 µM and the TGI (SF-268 CNS) was > 100 µM. For the same compound, the TGI (MALME-3M melanoma) was > 100 µM, the TGI (MCF7 breast) was > 100 µM and the TGI (SK-MEL-2 melanoma) was > 100 µM. For the same compound, the TGI (SF-539 CNS) was > 100 µM, the TGI (HOP-92 NSCLC) was > 100 µM and the TGI (UACC-62 melanoma) was > 100 µM. For the same compound, the TGI (A549 NSCLC) was > 100 µM, the TGI (SK-MEL-28 melanoma) was > 100 µM and the TGI (TK-10 renal) was > 100 µM. For the same compound, the TGI (SN12C renal) was > 100 µM, the TGI (SW-620 colon) was > 100 µM and the TGI (ACHN renal) was > 100 µM. For the same compound, the TGI (SNB-19 CNS) was > 100 µM, the TGI (MDA-N) was > 100 µM and the TGI (OVCAR-4 ovarian) was > 100 µM. For the same compound, the TGI (KM12 colon) was > 100 µM, the TGI (K-562 leukemia) was > 100 µM and the TGI (OVCAR-5 ovarian) was > 100 µM. The TGI (HCT-15 colon) was > 100 µM, the TGI (DU-145 prostate) was > 100 µM and the TGI (NCI/ADR-RES ovarian) was > 100 µM. The TGI (PC-3 prostate) was > 100 µM, the TGI (SF-295 CNS) was > 100 µM and the TGI (HCT-116 colon) was > 100 µM. For the same compound, the TGI (CAKI-1 renal) was > 100 µM, the TGI (MOLT-4 leukemia) was > 100 µM and the TGI (U251 CNS) was > 100 µM. The TGI (HOP-62 NSCLC) was > 100 µM, the TGI (HT29 colon) was > 100 µM and the TGI (A498 renal) was > 100 µM. The TGI (UO-31 renal) was > 100 µM, the TGI (SK-MEL-5 melanoma) was > 100 µM and the TGI (OVCAR-3 ovarian) was > 100 µM. The TGI (SK-OV-3 ovarian) was > 100 µM, the TGI (MDA-MB-231 breast) was > 100 µM and the TGI (786-0 renal) was > 100 µM. The TGI (OVCAR-8 ovarian) was > 100 µM.
